Measured values: PubChem BioAssay (NCI)
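Each compound was tested at five concentrations against cells in 96-well plates for 48 hours. At the TGI there is no net growth.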

Experiments:
Assay in all cases: growth of human tumour cells (NCI), 48 h
[1] = tested on: BT-549 breast
[2] = tested on: RPMI-8226 leukemia
[3] = tested on: SR leukemia
[4] = tested on: SF-539 CNS
[5] = tested on: NCI-H226 lung
[6] = tested on: SK-MEL-28 melanoma
[7] = tested on: SNB-19 CNS
[8] = tested on: KM12 colon
[9] = tested on: SK-MEL-5 melanoma
[10] = tested on: NCI/ADR-RES ovarian
[11] = tested on: MOLT-4 leukemia
[12] = tested on: HS 578T breast
[13] = tested on: HCC-2998 colon
[14] = tested on: HCT-116 colon
[15] = tested on: SK-MEL-2 melanoma
[16] = tested on: PC-3 prostate
[17] = tested on: MDA-N
[18] = tested on: NCI-H23 lung
[19] = tested on: SN12C renal
[20] = tested on: A549 NSCLC

Cc1ccc2c(c1)C(=O)/C(=N/Nc1ccc(Cl)cc1)CCO2
TGI [1]: > 100 µM | TGI [2]: > 100 µM | TGI [3]: > 100 µM | TGI [4]: > 100 µM | TGI [5]: > 100 µM | TGI [6]: > 100 µM | TGI [7]: > 100 µM | TGI [8]: > 100 µM | TGI [9]: > 100 µM | TGI [10]: > 100 µM | TGI [11]: > 100 µM | TGI [12]: > 100 µM | TGI [13]: > 100 µM | TGI [14]: > 100 µM | TGI [15]: 54.6 µM | TGI [16]: > 100 µM | TGI [17]: > 100 µM | TGI [18]: > 100 µM | TGI [19]: > 100 µM | TGI [20]: > 100 µM

CCOC(=O)C(SCCO)C(C(=O)OCC)n1cnc2c(N)ncnc21 (stereo not given)
TGI [1]: 30.8 µM | TGI [2]: 23.5 µM | TGI [3]: 14.5 µM | TGI [4]: 35.5 µM | TGI [5]: 38 µM | TGI [6]: 34.3 µM | TGI [7]: > 69.1 µM | TGI [8]: 35.2 µM | TGI [9]: > 58 µM | TGI [10]: 56.7 µM | TGI [11]: 20 µM | TGI [12]: 59.2 µM | TGI [13]: 30.4 µM | TGI [14]: 22.2 µM | TGI [15]: 24.4 µM | TGI [16]: 14.7 µM | TGI [17]: 44.1 µM | TGI [18]: 31.2 µM | TGI [19]: 25.6 µM | TGI [20]: > 100 µM

CC(=O)O[C@H]1CC[C@H]2[C@@H]3CCC4C(C)=NNC(=O)C4[C@H]3CC[C@]12C (stereo not given in full)
TGI [1]: > 69.7 µM | TGI [2]: > 100 µM | TGI [3]: > 100 µM | TGI [4]: > 100 µM | TGI [5]: > 100 µM | TGI [6]: > 100 µM | TGI [7]: > 82.9 µM | TGI [8]: > 100 µM | TGI [9]: > 100 µM | TGI [10]: > 100 µM | TGI [11]: > 100 µM | TGI [12]: 64.2 µM | TGI [13]: > 100 µM | TGI [14]: > 100 µM | TGI [15]: > 100 µM | TGI [16]: > 100 µM | TGI [17]: > 100 µM | TGI [18]: > 100 µM | TGI [19]: > 100 µM | TGI [20]: > 100 µM
